Six molecules from patent publication US6406881B2 (priority 1999, dated 2002) can be followed below.

For one assay, the system named is Escherichia coli. Nature of the assay: Mutant prevention concentration (MPC) against Escherichia coli. Type of assay: cell-based. Particulars: for WI (MPC/MIC): window index.
In another assay the test system is Staphylococcus aureus. The assay is described as follows: Mutant prevention concentration (MPC) against Staphylococcus aureus. In kind it is cell-based. Particulars: for WI (MPC/MIC): window index.

Regarding `O=C(N[C@H](CO)[C@H](O)c1ccc([N+](=O)[O-])cc1)C(Cl)Cl` [Chloramphenicol], the “MPC (MPC10^10)” value with Escherichia coli turned out to be 12 μg/ml; in the assay with Staphylococcus aureus, 40 μg/ml. Also, the “WI (MPC/MIC)” value in the assay with Escherichia coli is reported as 6.3; with Staphylococcus aureus, 21; in the assay on Staphylococcus aureus (listed as chloramphenicol), “about 21”.

Regarding `CCn1cc(C(=O)O)c(=O)c2cc(F)c(N3CCNCC3)cc21` [Norfloxacin], in the assay on Escherichia coli, the “MPC (MPC10^10)” value was 1.5 μg/ml and the “WI (MPC/MIC)” value came to 33. Also, in the assay on Staphylococcus aureus, the “MPC (MPC10^10)” value is given as 22 μg/ml and the “WI (MPC/MIC)” value came out at 26.

Consider `CO[C@H]1/C=C/O[C@@]2(C)Oc3c(C)c(O)c4c(O)c(c(/C=N/N5CCN(C)CC5)c(O)c4c3C2=O)NC(=O)/C(C)=C\C=C\[C@H](C)[C@H](O)[C@@H](C)[C@@H](O)[C@@H](C)[C@H](OC(C)=O)[C@@H]1C` [Rifampicin], for which the “MPC (MPC10^10)” value in the assay on Escherichia coli is recorded as >4,000 μg/ml; with Staphylococcus aureus, 480 μg/ml. In addition, the results for the “WI (MPC/MIC)” value with Escherichia coli, with Staphylococcus aureus and in the assay with Staphylococcus aureus (listed as rifampicin) were above 800, 120,000 and “greater than 120,000”, respectively.

For `NC[C@H]1O[C@H](O[C@H]2[C@H](O)[C@@H](O[C@H]3O[C@H](CO)[C@@H](O)[C@H](N)[C@H]3O)[C@H](N)C[C@@H]2N)[C@H](N)C[C@@H]1O` [Tobramycin], in the assay with Escherichia coli, the “MPC (MPC10^10)” value was 25 μg/ml and the “WI (MPC/MIC)” value was found to be 21. Besides, in the assay with Staphylococcus aureus, the “MPC (MPC10^10)” value was determined as 20 μg/ml and the “WI (MPC/MIC)” value is recorded as 74.

Regarding `CN[C@H](CC(C)C)C(=O)N[C@H]1C(=O)N[C@@H](CC(N)=O)C(=O)N[C@H]2C(=O)N[C@H]3C(=O)N[C@H](C(=O)N[C@H](C(=O)O)c4cc(O)cc(O)c4-c4cc3ccc4O)[C@H](O)c3ccc(c(Cl)c3)Oc3cc2cc(c3O[C@@H]2O[C@H](CO)[C@@H](O)[C@H](O)[C@H]2O[C@H]2C[C@](C)(N)[C@H](O)[C@H](C)O2)Oc2ccc(cc2Cl)[C@H]1O` [Vancomycin], in the assay with Staphylococcus aureus, the “MPC (MPC10^10)” value came to 40 μg/ml and the “WI (MPC/MIC)” value was found to be 61.

With Penicillin, the figures for the “MPC (MPC10^10)” value in the assay on Escherichia coli and with Staphylococcus aureus were 300 μg/ml and 1 μg/ml, respectively. Further, the entries for the “WI (MPC/MIC)” value in the assay on Escherichia coli and in the assay with Staphylococcus aureus were 100 and 42, respectively.
